Where two headings read alike, the source gives them in different places.
How the values were obtained:
Bacteroides fragilis = assay: Expected efficacy of antibiotic agents; conditions: expected efficacy against Bacteroides fragilis; Gram: anaer
Clostridium difficile = assay: Expected efficacy of antibiotic agents; conditions: expected efficacy against Clostridium difficile; Gram: anaer
Chlamydia trachomatis = assay: Expected efficacy of antibiotic agents; conditions: expected efficacy against Chlamydia trachomatis; Gram: n/a
Mycoplasma pneumoniae = assay: Expected efficacy of antibiotic agents; conditions: expected efficacy against Mycoplasma pneumoniae; Gram: n/a
Acinetobacter lwoffii = assay: Expected efficacy of antibiotic agents; conditions: expected efficacy against Acinetobacter lwoffii; Gram: neg
Bordetella pertussis = assay: Expected efficacy of antibiotic agents; conditions: expected efficacy against Bordetella pertussis; Gram: neg
Campylobacter jejuni = assay: Expected efficacy of antibiotic agents; conditions: expected efficacy against Campylobacter jejuni; Gram: neg
Citrobacter diversus = assay: Expected efficacy of antibiotic agents; conditions: expected efficacy against Citrobacter diversus; Gram: neg
Enterobacter aerogenes = assay: Expected efficacy of antibiotic agents; conditions: expected efficacy against Enterobacter aerogenes; Gram: neg
Enterobacter cloacae = assay: Expected efficacy of antibiotic agents; conditions: expected efficacy against Enterobacter cloacae; Gram: neg
Escherichia coli = assay: Expected efficacy of antibiotic agents; conditions: expected efficacy against Escherichia coli; Gram: neg
Haemophilus ducreyi = assay: Expected efficacy of antibiotic agents; conditions: expected efficacy against Haemophilus ducreyi; Gram: neg
Haemophilus influenzae = assay: Expected efficacy of antibiotic agents; conditions: expected efficacy against Haemophilus influenzae; Gram: neg
[1] = test system: Klebsiella (Calymmatobacterium); assay: Expected efficacy of antibiotic agents; conditions: expected efficacy against Klebsiella (Calymmatobacterium); Gram: neg
Klebsiella oxytoca = assay: Expected efficacy of antibiotic agents; conditions: expected efficacy against Klebsiella oxytoca; Gram: neg
Moraxella catarrhalis = assay: Expected efficacy of antibiotic agents; conditions: expected efficacy against Moraxella catarrhalis; Gram: neg
Morganella morganii = assay: Expected efficacy of antibiotic agents; conditions: expected efficacy against Morganella morganii; Gram: neg
Neisseria gonorrhoeae = assay: Expected efficacy of antibiotic agents; conditions: expected efficacy against Neisseria gonorrhoeae; Gram: neg
Proteus mirabilis = assay: Expected efficacy of antibiotic agents; conditions: expected efficacy against Proteus mirabilis; Gram: neg
Providencia rettgeri = assay: Expected efficacy of antibiotic agents; conditions: expected efficacy against Providencia rettgeri; Gram: neg
Providencia stuartii = assay: Expected efficacy of antibiotic agents; conditions: expected efficacy against Providencia stuartii; Gram: neg
Pseudomonas aeruginosa = assay: Expected efficacy of antibiotic agents; conditions: expected efficacy against Pseudomonas aeruginosa; Gram: neg
Salmonella typhi = assay: Expected efficacy of antibiotic agents; conditions: expected efficacy against Salmonella typhi; Gram: neg
Serratia marcescens = assay: Expected efficacy of antibiotic agents; conditions: expected efficacy against Serratia marcescens; Gram: neg
Shigella boydii = assay: Expected efficacy of antibiotic agents; conditions: expected efficacy against Shigella boydii; Gram: neg
Shigella dysenteriae = assay: Expected efficacy of antibiotic agents; conditions: expected efficacy against Shigella dysenteriae; Gram: neg
Shigella flexneri = assay: Expected efficacy of antibiotic agents; conditions: expected efficacy against Shigella flexneri; Gram: neg
Shigella sonnei = assay: Expected efficacy of antibiotic agents; conditions: expected efficacy against Shigella sonnei; Gram: neg
Vibrio cholerae = assay: Expected efficacy of antibiotic agents; conditions: expected efficacy against Vibrio cholerae; Gram: neg
Corynebacterium jeikeium = assay: Expected efficacy of antibiotic agents; conditions: expected efficacy against Corynebacterium jeikeium; Gram: pos
[2] = test system: Corynebacterium urealyticum; assay: Expected efficacy of antibiotic agents; conditions: expected efficacy against Corynebacterium urealyticum; Gram: pos
Diphtheroids = assay: Expected efficacy of antibiotic agents; conditions: expected efficacy against Diphtheroids; Gram: pos
Enterococcus faecium = assay: Expected efficacy of antibiotic agents; conditions: expected efficacy against Enterococcus faecium; Gram: pos
[3] = test system: Methicillin resistant staph aureus (MRSA); assay: Expected efficacy of antibiotic agents; conditions: expected efficacy against Methicillin resistant staph aureus (MRSA); Gram: pos
Peptostreptococcus = assay: Expected efficacy of antibiotic agents; conditions: expected efficacy against Peptostreptococcus; Gram: pos
[4] = test system: Staphylococcus epidermidis; assay: Expected efficacy of antibiotic agents; conditions: expected efficacy against Staphylococcus epidermidis; Gram: pos
Streptococcus pneumoniae = assay: Expected efficacy of antibiotic agents; conditions: expected efficacy against Streptococcus pneumoniae; Gram: pos
Streptococcus pyogenes = assay: Expected efficacy of antibiotic agents; conditions: expected efficacy against Streptococcus pyogenes; Gram: pos
[5] = test system: Viridans group streptococci; assay: Expected efficacy of antibiotic agents; conditions: expected efficacy against Viridans group streptococci; Gram: pos

Measured: Efficacy

CO/N=C(\C(=O)N[C@@H]1C(=O)N2C(C(=O)O)=C(CSc3nc(=O)c(=O)[nH]n3C)CS[C@H]12)c1csc(N)n1 [Ceftriaxone]
no: Clostridium difficile | Chlamydia psittaci; expected efficacy against Chlamydia psittaci, Gram: n/a | Chlamydia trachomatis | Mycoplasma pneumoniae | Acinetobacter lwoffii | Bordetella pertussis | Campylobacter jejuni | Francisella tularensis; expected efficacy against Francisella tularensis, Gram: neg | Legionella pneumophila; expected efficacy against Legionella pneumophila, Gram: neg | Pseudomonas aeruginosa | Vibrio cholerae | Yersinia pestis; expected efficacy against Yersinia pestis, Gram: neg | Corynebacterium jeikeium | [2] | Diphtheroids | Enterococcus faecium | [3]
yes: Bacteroides fragilis | Citrobacter diversus | Enterobacter aerogenes | Enterobacter cloacae | Escherichia coli | Haemophilus ducreyi | Haemophilus influenzae | [1] | Klebsiella oxytoca | Moraxella catarrhalis | Morganella morganii | Neisseria gonorrhoeae | Proteus mirabilis | Providencia rettgeri | Providencia stuartii | Salmonella typhi | Serratia marcescens | Shigella boydii | Shigella dysenteriae | Shigella flexneri | Shigella sonnei | Peptostreptococcus | [4] | Streptococcus pneumoniae | Streptococcus pyogenes | [5]

CN[C@H](CC(C)C)C(=O)N[C@H]1C(=O)N[C@@H](CC(N)=O)C(=O)N[C@H]2C(=O)N[C@H]3C(=O)N[C@H](C(=O)N[C@H](C(=O)O)c4cc(O)cc(O)c4-c4cc3ccc4O)[C@H](O)c3ccc(c(Cl)c3)Oc3cc2cc(c3O[C@@H]2O[C@H](CO)[C@@H](O)[C@H](O)[C@H]2O[C@H]2C[C@](C)(N)[C@H](O)[C@H](C)O2)Oc2ccc(cc2Cl)[C@H]1O [Vancomycin]
yes, not VRE: Enterococcus faecium
no: Bacteroides fragilis | Chlamydia psittaci | Chlamydia trachomatis | Mycoplasma pneumoniae | Acinetobacter lwoffii | Bordetella pertussis | Campylobacter jejuni | Citrobacter diversus | Enterobacter aerogenes | Enterobacter cloacae | Escherichia coli | Francisella tularensis | Haemophilus ducreyi | Haemophilus influenzae | [1] | Klebsiella oxytoca | Legionella pneumophila | Moraxella catarrhalis | Morganella morganii | Neisseria gonorrhoeae | Proteus mirabilis | Providencia rettgeri | Providencia stuartii | Pseudomonas aeruginosa | Salmonella typhi | Serratia marcescens | Shigella boydii | Shigella dysenteriae | Shigella flexneri | Shigella sonnei | Vibrio cholerae | Yersinia pestis
yes: Clostridium difficile | Corynebacterium jeikeium | [2] | Diphtheroids | [3] | Peptostreptococcus | [4] | Streptococcus pneumoniae | Streptococcus pyogenes | [5]

Source: patent US20220265694A1, “COMPOSITIONS AND METHODS FOR TREATING AN INFECTION” (CMPD LICENSING, LLC, priority 2016, published 2022)
